Experimental findings from US20260242563A1, “DEGRADABLE CROSSLINKING AGENT” (NAGASE CHEMTEX CORPORATION, priority 2023, published 2026) are described below.

The nature of the first data set: Adding a small amount of 12% sodium hypochlorite aqueous solution to the cross-linking agent compound. It is filed as physicochemical. The note with it: small amount of 12% sodium hypochlorite aqueous solution added to the compound.
Turning to `C=C(C)C(=O)NNC(=O)OCCOCCOCCOC(=O)NNC(=O)C(=C)C` [Formula (A1)], the “degradation product generated (confirmed by 1H-NMR)” value (“degradation product generated” below) is “triethylene glycol” and the “observation upon adding oxidizing agent” value is “foaming occurred”. On the same counts, the results for `C=CCOC(=O)NNC(=O)OCCCCCCOC(=O)NNC(=O)OCC=C` [Formula (A3)] are 1,6-hexanediol and “foaming occurred”. With `NNC(=O)CCC(NC(=O)NNC(=O)c1cc(C(=O)NNC(=O)NC(=O)NC(CCC(=O)NN)C(=O)NN)cc(S(=O)(=O)[O-])c1)C(=O)NN.[Na+]` (centres unmarked) [Formula (A6)], the “degradation product generated” value is listed as “sodium 5-sulfoisophthalate” and the “observation upon adding oxidizing agent” value is “foaming occurred”. For `C=CCOC(=O)NNC(=O)CCC(NC(=O)NNC(=O)c1cc(C(=O)NNC(=O)NC(CCC(=O)NNC(=O)OCC=C)C(=O)NNC(=O)OCC=C)cc(S(=O)(=O)[O-])c1)C(=O)NNC(=O)OCC=C.[Na+]` (centres unmarked) [Formula (A7)], the “degradation product generated” value is “sodium 5-sulfoisophthalate and glutamic acid”; the “observation upon adding oxidizing agent” value is reported as “foaming occurred”.

For the molecule `C=CCOC(=O)NNC(=O)CCC(NC(=O)NNC(=O)CCC(=O)NNC(=O)NC(CCC(=O)NNC(=O)OCC=C)C(=O)NNC(=O)OCC=C)C(=O)NNC(=O)OCC=C` (centres unmarked) [Formula (A8)], the “degradation product generated” value is “succinic acid and glutamic acid”; the “observation upon adding oxidizing agent” value was “foaming occurred”. Take `C=C(C)C(=O)NNC(=O)c1ccc(OCC(O)COc2ccc(C(C)(C)c3ccc(OCC(O)COc4ccc(C(=O)NNC(=O)C(=C)C)cc4)cc3)cc2)cc1` (centres unmarked) [Formula (B), reference compound]: the “degradation product generated” value is “compound of formula (C)” and the “observation upon adding oxidizing agent” value was “foaming occurred”.

Another data set is described as follows: Water solubility of degradation products in ion exchange water at 20° C. As to conditions: 0.3 g in 10 mL of ion exchange water.
For the molecule `CC(C)(c1ccc(OCC(O)COc2ccc(C(=O)O)cc2)cc1)c1ccc(OCC(O)COc2ccc(C(=O)O)cc2)cc1` (centres unmarked) [Formula (C)], the water solubility entry was “insoluble”. The same measure, in the same setting: the value for `O=C(O)c1cc(C(=O)O)cc(C(=O)O)c1` [trimesic acid] was “insoluble”.

The data set is the same for the next values; noted with them: 0.5 g in 10 mL of ion exchange water.
Take `O=C(O)CCCCCO` [6-hydroxyhexanoic acid]: the water solubility entry is given as “soluble”.

Staying with this data set, now noted: 2 g in 10 mL of ion exchange water.
With `OCCOCCOCCO` [triethylene glycol], the water solubility result is “soluble”.

Still in this data set, the particulars now being: one gram in 10 mL of ion exchange water.
Consider `OCCCCCCO` [1,6-hexanediol], for which the water solubility entry is recorded as “soluble”. Regarding `O=C(O)c1cc(C(=O)O)cc(S(=O)(=O)O)c1` [5-sulfoisophthalic acid], the water solubility result is “soluble”. `NCCCCCCN` [hexamethylenediamine]: the water solubility entry was “soluble”. Same read-out and setting: next, `OCCOCCOCCO` [triethylene glycol]: “soluble”.
